In patent EP1009418B1, “ROBINIA PSEUDOACACIA LECTIN AND ITS USES” (priority 1997, dated 1999):

Key:
[1] = system: small intestine, jejunum and ileum; test: Protection of rats from high-dose 5-FU by oral pre-dosing with RPA: gut wet weights and visual inspection; type: in vivo, Hooded Lister (Rowett Strain) rats
Method: (§1) Thirty five young male Hooded Lister (Rowett Strain) rats (19 days old weighing 30-40g) were housed individually in grid bottom cages. The animals were fed a high quality semi-synthetic diet containing 10% lactalbumin protein (Table 1).
(§2) Diet and water was freely available at all times except on day 19 when the amount of food offered was restricted to 10g/rat. At 19 days, rat weights were 100-104g.
Animals pre-dosed with RPA were given the equivalent of 25, 50 or 100 mg/kg body weight RPA (Table 2) in 0.9% saline by gavage. The animals were pre-dosed for three consecutive days prior to the 5-FU injection.
(§3) Animals not pre-dosed with RPA were administered with 1 ml 0.9% saline by gavage.
(§4) 300mg of 5-fluorouracil was stirred in 14ml of distilled water. 1M NaOH was added slowly until the 5-FU had dissolved. The solution was made up to a final volume of 20 ml. The final pH of the solution was 8.3. A dose of 150 mg/kg body weight was administered to the animal by intraperitoneal injection. Immediately after the injection, the rats were offered 15g of the control diet.
Five groups, each consisting of 5 rats were fed on the standard diet containing lactalbumin (Table 1). One group of rats were fed 8 g per day of standard diet for three days and then injected with 5-FU at 150 mg/kg body weight (Table 2).
The rats were pair fed for the first three days and then fed ab libitum post 5-FU injection.
Three groups of animals were gavaged daily with 25, 50 or 100 mg/kg/day body weight Robinia pseudoacacia lectin (RPA) for three days and then injected with 150 mg/kg 5-FU on the following day. The remaining group of animals were pre-dosed with 100 mg/kg body weight RPA and then returned to lactalbumin containing diet without injection of 5-FU. After injection with 5-FU, the animals were returned to lactalbumin containing diet ad lib. The animals were sacrificed 7 days after the start of the experiment, the carcass dissected and the small intestine, jejunum and ileum wet weights recorded.

[2] = system: small intestine, jejunum and ileum; test: Protection of rats from high-dose 5-FU by oral pre-dosing with A4 or B4 homotetramer lectin: gut dry weights and visual inspection; type: in vivo, Hooded Lister (Rowett Strain) rats
Method: as §1, §2, §3, §4
Five groups, each consisting of 5 rats were fed on a standard diet containing lactalbumin (Table 1) and were fed on the following dietary regime (Table 4); Table 4.
One group of animals (Treatment 1) were fed standard diet throughout. The second group were gavaged daily with saline for three days and then injected with 5-FU at 150 mg/kg body weight (Treatment 2). The remaining two groups (Treatment 3 & 4) of animals were gavaged daily for three days with either A4 or B4 RPA homotetramer for three days and then injected with 150 mg/kg body weight 5-FU. After injection with 5-FU, Treatment groups 2-4 were returned to standard diet for four days ad lib. The animals were sacrificed 7 days after the start of the experiment, the carcass dissected and the small intestine, jejunum and ileum dry weights recorded.
Dry weights normalised to 100g dry body weight.

[3] = wet weight, lactalbumin diet 3d, 5-FU 150 mg/kg i.p., no RPA
[4] = dry weight normalised to 100g dry body weight, saline gavage 3d, 5-FU 150 mg/kg, no lectin

`O=c1[nH]cc(F)c(=O)[nH]1` [5-FU, 5-fluorouracil] was tested, and the “Visual inspection of the small intestine, jejunum and ileum” value ([1]; 5-FU alone (treatment 1)) was “no, or a very thin mucosal layer”, the “Ileum” value [1, 3] was 1.0 g and the “Jejunum” value [1, 3] was 1.0 g. For the same compound, the “Small intestine” value [1, 3] was 5.62 g, the “tissue dry weight versus the untreated control” value ([2]; 5-FU 150 mg/kg (treatments 1 & 2)) was “significant reduction in tissue dry weight” and the “Visual inspection of the small intestine, jejunum and ileum” value ([2]; 5-FU alone) was “extensively damaged mucosal”. The “Ileum” value [2, 4] was 405 mg, the “Jejunum” value [2, 4] was 336 mg and the “Small intestine” value [2, 4] was 1789 mg.
